Like-named read-outs stand apart in the source and are kept apart here.
Experiments:
[1] = target: T1, TPCK trypsin (Bos taurus, UniProt P00760); format: biochemical; conditions: for average fluorescence of wells with trypsin exposed to tubes with immobilized ligand: 12.5 ng trypsin per tube, 120 minutes at room temperature
T1 construct: purchased Thermo Scientific Pierce 23266
T1 sequence (P00760 24-246): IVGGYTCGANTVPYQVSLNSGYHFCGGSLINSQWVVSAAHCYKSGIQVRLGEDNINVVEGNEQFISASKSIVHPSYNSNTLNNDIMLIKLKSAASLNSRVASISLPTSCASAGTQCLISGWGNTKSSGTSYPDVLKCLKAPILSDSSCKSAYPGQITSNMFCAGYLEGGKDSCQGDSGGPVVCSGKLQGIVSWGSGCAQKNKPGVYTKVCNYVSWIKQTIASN
Procedure: Protease activity and the inhibition thereof were measured with a Fluorescent Protease Assay Kit (Thermo Scientific Pierce, catalog number 23266). TRIS-buffered saline (TBS, 25 mM Tris, 0.15 M NaCl, pH 7.2) was reconstituted from dry solids in the kit with deionized water. Trypsin stock solution was freshly prepared by dissolving TPCK trypsin from kit with 1 mL deionized water to make a 50 mg/mL solution. […] Aliquots of 10 μL were stored at −60° C. Individual aliquots of the stock solution were diluted in 1.0 mL of TBS (0.5 mg/mL), and 10 μL of this solution was further diluted in 10 mL of TBS (0.5 μg/mL). This solution was serially diluted 1:1 with TBS to create a trypsin solution of 62.5 ng/mL. The trypsin solution was kept in an ice bath until use. 200 μL of the diluted trypsin (12.5 ng) was added to each prepared polypropylene tube. The solution was aspirated and re-dispensed three times in each tube to assure complete mixing and contact of the solution with the derivatized internal walls of the tubes. A new disposable tip was used for each transfer. After incubation at room temperature for 120 minutes, 100 μL of the trypsin solution from each tube was placed into individual wells of a 96-well, black, flat-bottomed plate (Greiner Bio-one, catalog number 655076, Monroe, N.C.). […] The plate was incubated at room temperature for 95 minutes. […] Increased fluorescence is indicative of trypsin-mediated digestion of the added FTC-casein solution via the decrease of FRET-based fluorescence quenching that exists in the intact protein.

[2] = target: T1, TPCK trypsin; format: biochemical; conditions: for average fluorescence of wells with trypsin exposed to tubes with immobilized ligand: 12.5 ng trypsin per tube, 120 minutes at room temperature; remark: listed apart in the source
Procedure: Protease activity and the inhibition thereof were measured with a Fluorescent Protease Assay Kit (Thermo Scientific Pierce, catalog number 23266). TRIS-buffered saline (TBS, 25 mM Tris, 0.15 M NaCl, pH 7.2) was reconstituted from dry solids in the kit with deionized water. Trypsin stock solution was freshly prepared by dissolving TPCK trypsin from kit with 1 mL deionized water to make a 50 mg/mL solution. Aliquots of 10 μL were stored at −60° C. Individual aliquots of the stock solution were diluted in 1.0 mL of TBS (0.5 mg/mL), and 10 μL of this solution was further diluted in 10 mL of TBS (0.5 μg/mL). This solution was serially diluted 1:1 with TBS to create a trypsin solution of 62.5 ng/mL. The trypsin solution was kept in an ice bath until use. 200 μL of the diluted trypsin (12.5 ng) was added to each prepared polypropylene tube. The solution was aspirated and re-dispensed three times in each tube to assure complete mixing and contact of the solution with the derivatized internal walls of the tubes. A new disposable tip was used for each transfer. After incubation at room temperature for 120 minutes, 100 μL of the trypsin solution from each tube was placed into individual wells of a 96-well, black, flat-bottomed plate (Greiner Bio-one, catalog number 655076, Monroe, N.C.). FTC-casein—(casein protein modified by the addition of fluorescein isothiocyanate, a part of the Fluorescent Protease Assay Kit) solution in TBS buffer was freshly prepared and 100 μL of this solution was added to each well and mixed via aspiration and dispense. The plate was incubated at room temperature for 95 minutes. The fluorescence of the samples in the 96-well plate was measured on a SpectraFluor Plus fluorescence spectrometer (Tecan, Mannedorf, Switzerland) 5 minutes after the solution was added and additionally after 10, 20, 40, 60 and 95 minutes. Increased fluorescence is indicative of trypsin-mediated digestion of the added FTC-casein solution via the decrease of FRET-based fluorescence quenching that exists in the intact protein.

[3] = Example A, ligand immobilized on tube wall, background 5382 RFU
[4] = Example B, ligand immobilized on tube wall, background 5382 RFU
[5] = 0.1 mM TLCK in the well (not immobilized), after 20 minutes, background 5382 RFU

Structure (SMILES) | average fluorescence of wells with trypsin exposed to tubes with immobilized ligand [1, 3] | average fluorescence of wells with trypsin exposed to tubes with immobilized ligand [2, 4] | fluorescence of wells that contained FTC-casein, trypsin and inhibitor [1, 5] | inhibition of trypsin activity ([1]; Example A, ligand immobilized on tube wall, trypsin exposed 120 minutes at room temperature) | fluorescence of wells that contained FTC-casein, trypsin and inhibitor [2, 5] | inhibition of trypsin activity ([2]; Example B, ligand immobilized on tube wall, trypsin exposed 120 minutes at room temperature)
NCCCO [AP Ligand, 3-amino-1-propanol] | 21289 RFU | 20847 RFU |  |  |  | 
Cc1ccc(S(=O)(=O)N[C@@H](CCCCN)C(=O)CCl)cc1.Cl [TLCK Ligand, N-alpha-tosyl-L-lysine chloromethyl ketone hydrochloride] | 15521 RFU | 13386 RFU | 6841 RFU | 35% | 6841 RFU | 48%

Source: patent publication US12440833B2, “Sample containers adapted for acoustic ejections and sample preservation and methods thereof” (priority 2011, dated 2025)
